In patent publication US9518038B2, “Condensation product of theanine derivative and carboxylic acid coumarin derivative, its intermediate, preparation method and use thereof” (SHANDONG YINGDONG YINGHAO BIOTECHNOLOGY, INC., priority 2012, dated 2016):
Read-outs that look alike come from different tables or passages of the source.

Tests used:
[1] = tested on: human lung cancer cells A549; experiment: MTT growth inhibition, A549 cells; format: cell-based; conditions: 72 h after treatment, read-out: Drug concentration (IC50) at which 50% cancer cells survived
Text: (§1) Cell lines and cell culture: human lung cancer cells A549 and H460, human breast cancer cells MCF-7 and MDA-MB-231, human gastric cancer cells BGC-823, human prostate cancer cells PC-3, human chronic leukemia cells K562, human lymphoma cells U937, human liver cancer cells SMMC7721 and HepG2, human colon cancer cells HT29, human pancreatic cancer cells PANC-1 and BxPC3, human cervical cancer Hela cell lines, human brain tumor cells Daoy, human neuroma cells D54 and human oral epidermoid cancer cells KBV200 line with strong drug resistance, mouse melanoma cells B16, and highly metastatic Lewis lung cancer cell lines were purchased from American Type Culture Collection of the U.S. These cells were cultured with DMEM and RPMI-1640 culture solutions separately.
(§2) The procedure was as follows:
(§3) (1) 0.25% trypsin was used to digest cancer cells in a logarithmic growth phase to prepare a single-cell suspension, the concentration of cells was adjusted to 5×10^4/mL, and the adjusted suspension was inoculated into a 96-well culture plate with 100 μl per well;
(§4) (2) The culture plate was transferred into a 37° C. incubator with a saturated humidity and 5% of CO2 and cultured for 24 h; the compounds and the intermediates thereof obtained in embodiments 1-7 and the compound as represented by formula (IIIa) or the positive control anti-cancer drug with the concentration of 1-1000 μM/L were added to enable the final concentration to be 0.1-1500 μM/L. Control wells (only added with 200 μl of cell suspension) and drug-free blank control wells (containing the solvent of 0.01% DMSO) were set, each group included 8 wells, and the plate was placed into the 37° C. incubator with saturated humidity and 5% of CO2 for culturing;
(§5) (3) The 96-well plate was taken out at 48 h and 72 h after dosing, the original culture medium was carefully removed by suction, 100 μl of serum-free DMEM culture medium and 10 μl of MTT (5 mg/mL) solution were added in each well. The plate was continuously cultured for another 4 h and then the culture was terminated;
(§6) (4) The supernatant in the wells was carefully removed by suction, each well was added with 150 μl of DMSO and shaked at room temperature for 10-15 min to fully dissolve crystals.
(§7) (5) Colorimetric analysis: the wavelength was selected as 570 nm, the light absorbance (A value) of each well was determined on the microplate reader and the results were recorded; the experiment was repeated for three times;
(§8) (6) the experimental results were calculated according to the following formula: relative survival rate=(A value of each experimental group/A value of cell control group)×100%
(§9) Calculation of median-effect concentration (IC50, namely the drug concentration at which the inhibition rate is 50%, also known as half inhibitory concentration):
(§10) IC50 of the detected component was calculated by using a regression equation.

[2] = tested on: human breast cancer cells MDA-MB-231; experiment: MTT growth inhibition, MDA-MB-231 cells; format: cell-based; conditions: 72 h after treatment, read-out: Drug concentration (IC50) at which 50% cancer cells survived
Text: as §1, §2, §3, §4, §5, §6, §7, §8, §9, §10

[3] = tested on: human liver cancer cells SMMC7721; experiment: MTT growth inhibition, SMMC7721 cells; format: cell-based; conditions: SMMC-7721, S-7721 (SMMC7721), 72 h after treatment, read-out: Drug concentration (IC50) at which 50% cancer cells survived
Text: as §1, §2, §3, §4, §5, §6, §7, §8, §9, §10

[4] = tested on: human liver cancer cells HepG2; experiment: MTT growth inhibition, HepG2 cells; format: cell-based; conditions: 72 h after treatment, read-out: Drug concentration (IC50) at which 50% cancer cells survived
Text: as §1, §2, §3, §4, §5, §6, §7, §8, §9, §10

[5] = tested on: nucleoprotein factor NF-κB (p65)-DNA binding activity; experiment: NF-κB (p65)-DNA binding activity (EMSA); format: cell-based; conditions: EMSA, nuclear protein extracts, 48 h, read-out: Effective concentration for 50% inhibition of binding of nucleoprotein factor NF-kB (p65) and DNA
Text: The in-vitro experiment of the inhibitory effect against the NF-κB(p65)-DNA binding activity was applied with the chemiluminescent EMSA kit of Pierce Biotechnology Company of the U.S., the experimental method was strictly operated according to the description of the kit and the specific procedure were as follows:
(1) Preparation of EMSA gel
The cells treated by the drugs were extracted by the nucleoprotein extract solution (provided by Beyotime Biotechnology of Institute) to obtain the nucleoprotein extracts, and 10 μg/pipe of the nucleoprotein extracts were respectively used for sample reaction and electrophoresis detection and analysis shown in the following table.
(2) Pre-electrophoresis: the gel was fixed in an electrophoresis tank, which was filled with a 0.5×TBE electrophoresis buffer solution, and electrophoresed under 10V/cm for 90 min. The probe binding reaction was as follows:
The components were added in sequence into the EP pipe according to the above table, uniformly mixed and stood at room temperature for 15 min to eliminate possible non-specific binding of probe and protein. 1 μl of biotin-labeled probe NF-κB was respectively added and stood at room temperature for 20 min.
(4) Film transfer: the process of transferring the nucleoprotein factors and the binding probe on the EMSA gel to the nylon film was electrically transferred under 380 mA in ice bath for 40 min.
(5) Ultraviolet cross-linking: the nylon film was placed under a 254 nm ultraviolet lamp and irradiated for 15 min.
(6) Detection of the biotin-labeled probe by chemiluminescence: the cross-linked nylon film was blocked with the blocking solution, a treated film was subjected to X-ray exposure, developing, and fixation according to the requirements of the kit, and the results were analyzed.

p53 = experiment: Western Blotting, increase of p53 level; format: cell-based; conditions: liver cancer cells, Lewis lung cancer cells and other cancer cell lines and tumor tissue protein lysates, 48 h treatment, read-out: Effective concentration to increase p53 by 50%
Text: (§11) Antibodies: primary antibodies of VEGFR, EGFR, c-Met, K-Ras, H-Ras, Akt, NF-κB, Cyclin D1, ER-alpha, Dvl-1, Dvl-2, Dvl-3, MMP-9, MMP2, β-catenin, Bcl-2, Bax, p53, p21, E-cadherin and Caspase3 protein, purchased from American Cell Signaling Technology Company and Santa Cruz Technology Company; and H3 acetylation, H4 acetylation and HDAC (HDAC3, HDAC4 and the like) Antibody Sample Kits, purchased from Cell Signaling Technology Company of the U.S.
(§12) (3) polyacrylamide gel electrophoresis (SDS-PAGE): an equal amount of protein lysate sample was used to separate protein, film transfer, and blocking, treated with appropriate primary antibodies and secondary antibodies in sequence, and the film was washed, then the color was developed with ECL kit, and a blot protein band was detected by exposure of an X-ray film; and a Gel-Pro Analyzer was used for quantitative analysis of gray degree, optical density value of the control group and the drug treatment group in various concentration were respectively compared with that of internal reference, the obtained ratios were respectively compared with the control group, and the protein expression level was semi-quantified.

p21 = experiment: Western Blotting, increase of p21 level; format: cell-based; conditions: liver cancer cells, Lewis lung cancer cells and other cancer cell lines and tumor tissue protein lysates, 48 h treatment, read-out: Effective concentration to increase p21 by 50%
Text: as §11, §12

E-cadherin = experiment: Western Blotting, increase of E-cadherin level; format: cell-based; conditions: liver cancer cells, Lewis lung cancer cells and other cancer cell lines and tumor tissue protein lysates, 48 h treatment, read-out: Effective concentration to increase E-cadherin by 50%
Text: as §11, §12

Caspase3 = experiment: Western Blotting, increase of Caspase3 level; format: cell-based; conditions: liver cancer cells, Lewis lung cancer cells and other cancer cell lines and tumor tissue protein lysates, 48 h treatment, read-out: Effective concentration to increase Caspase-3 by 50%
Text: as §11, §12

[6] = tested on: human lung cancer cells H460; experiment: MTT growth inhibition, H460 cells; format: cell-based; conditions: NCI-H460, 72 h after treatment, read-out: Drug concentration (IC50) at which 50% cancer cells survived
Text: as §1, §2, §3, §4, §5, §6, §7, §8, §9, §10

[7] = tested on: human breast cancer cells MCF-7; experiment: MTT growth inhibition, MCF-7 cells; format: cell-based; conditions: MCF7, 72 h after treatment, read-out: Drug concentration (IC50) at which 50% cancer cells survived
Text: as §1, §2, §3, §4, §5, §6, §7, §8, §9, §10

[8] = tested on: human gastric cancer cells BGC-823; experiment: MTT growth inhibition, BGC-823 cells; format: cell-based; conditions: 72 h after treatment, read-out: Drug concentration (IC50) at which 50% cancer cells survived
Text: as §1, §2, §3, §4, §5, §6, §7, §8, §9, §10

[9] = tested on: human prostate cancer cells PC-3; experiment: MTT growth inhibition, PC-3 cells; format: cell-based; conditions: 72 h after treatment, read-out: Drug concentration (IC50) at which 50% cancer cells survived
Text: as §1, §2, §3, §4, §5, §6, §7, §8, §9, §10

[10] = tested on: human lymphoma cells U937; experiment: MTT growth inhibition, U937 cells; format: cell-based; conditions: Homo sapiens, U-937, 72 h after treatment, read-out: Drug concentration (IC50) at which 50% cancer cells survived
Procedure: as §2, §5, §6, §7, §8, §10

[11] = tested on: human pancreatic cancer cells PANC-1; experiment: MTT growth inhibition, PANC-1 cells; format: cell-based; conditions: 72 h after treatment, read-out: Drug concentration (IC50) at which 50% cancer cells survived
Text: as §1, §2, §3, §4, §5, §6, §7, §8, §9, §10

[12] = tested on: human cervical cancer Hela cell lines; experiment: MTT growth inhibition, Hela cells; format: cell-based; conditions: Homo sapiens, 72 h after treatment, read-out: Drug concentration (IC50) at which 50% cancer cells survived
Text: as §1, §2, §3, §4, §5, §6, §7, §8, §9, §10

[13] = tested on: human colon cancer cells HT29; experiment: MTT growth inhibition, HT29 cells; format: cell-based; conditions: HT-29, 72 h after treatment, read-out: Drug concentration (IC50) at which 50% cancer cells survived
Text: as §1, §2, §3, §4, §5, §6, §7, §8, §9, §10

mouse melanoma cells B16 = experiment: MTT growth inhibition, B16 cells; format: cell-based; conditions: Mus musculus, 72 h after treatment, read-out: Drug concentration (IC50) at which 50% cancer cells survived
Text: as §1, §2, §3, §4, §5, §6, §7, §8, §9, §10

[14] = tested on: human chronic leukemia cells K562; experiment: MTT growth inhibition, K562 cells; format: cell-based; conditions: 72 h after treatment, read-out: Drug concentration (IC50) at which 50% cancer cells survived
Text: as §1, §2, §3, §4, §5, §6, §7, §8, §9, §10

[15] = tested on: highly metastatic Lewis lung cancer cell lines; experiment: MTT growth inhibition, LLC cells; format: cell-based, mouse; conditions: Mus musculus, Lewis lung carcinoma, 72 h after treatment, read-out: Drug concentration (IC50) at which 50% cancer cells survived
Text: as §1, §2, §3, §4, §5, §6, §7, §8, §9, §10

[16] = tested on: human pancreatic cancer cells BxPC3; experiment: MTT growth inhibition, BxPc3 cells; format: cell-based; conditions: Homo sapiens, BXPC-3, 72 h after treatment, read-out: Drug concentration (IC50) at which 50% cancer cells survived
Text: as §1, §2, §3, §4, §5, §6, §7, §8, §9, §10

[17] = tested on: Caski human cervical cancer cells; experiment: MTT growth inhibition, Caski cells; format: cell-based; conditions: Ca-Ski, 72 h after treatment, read-out: Drug concentration (IC50) at which 50% cancer cells survived
[18] = tested on: human brain tumor cells Daoy; experiment: MTT growth inhibition, Daoy cells; format: cell-based; conditions: Homo sapiens, 72 h after treatment, read-out: Drug concentration (IC50) at which 50% cancer cells survived
Text: as §1, §2, §3, §4, §5, §6, §7, §8, §9, §10

human neuroma cells D54 = experiment: MTT growth inhibition, D54 cells; format: cell-based; conditions: Homo sapiens, 72 h after treatment, read-out: Drug concentration (IC50) at which 50% cancer cells survived
Text: as §1, §2, §3, §4, §5, §6, §7, §8, §9, §10

[19] = tested on: human oral epidermoid cancer cells KBV200; experiment: MTT growth inhibition, KBV200 cells; format: cell-based; conditions: 72 h after treatment, read-out: Drug concentration (IC50) at which 50% cancer cells survived
Text: as §1, §2, §3, §4, §5, §6, §7, §8, §9, §10

SMILES: CC[C@]1(O)C[C@H]2CN(CCc3c([nH]c4ccccc34)[C@@](C(=O)OC)(c3cc4c(cc3OC)N(C=O)[C@H]3[C@@](O)(C(=O)OC)[C@H](OC(C)=O)[C@]5(CC)C=CCN6CC[C@]43[C@@H]65)C2)C1 [Vincristine, reference compound]
- IC50 [1]: 220 µM
- IC50 [2]: 130 µM
- IC50 [3]: 78 ± 30 µM
- IC50 [4]: 37 µM
- IC50 ([5]; A549 cells): > 70 µM
- IC50 ([5]; Hela cells): > 70 µM
- IC50 ([5]; MCF7 cells): > 70 µM
- IC50 ([5]; MDA-MB231 cells): > 70 µM
- IC50 ([5]; PANC-1 cells): > 70 µM
- IC50 ([5]; SMMC7721 cells): > 70 µM
- EC50 (p53): > 70 µM
- EC50 (p21): > 70 µM
- EC50 (E-cadherin): > 70 µM
- EC50 (Caspase3): > 70 µM

SMILES: O=C(O)c1cc2cc(Cl)ccc2oc1=O [Compound IIIc, 6-chlorocoumarin-3-carboxylic acid]
- IC50 [1]: 600 ± 30 µM
- IC50 [6]: 350 ± 50 µM
- IC50 [7]: 300 µM
- IC50 [2]: 500 µM
- IC50 [8]: 300 µM
- IC50 [9]: 500 µM
- IC50 [10]: 500 µM
- IC50 [11]: 500 µM
- IC50 [12]: 600 µM
- IC50 [3]: 500 µM
- IC50 [13]: 700 µM
- IC50 (mouse melanoma cells B16): 600 µM
- IC50 [14]: 600 µM
- IC50 [15]: 400 µM
- IC50 [16]: 500 µM
- IC50 [4]: 300 µM
- IC50 [17]: 400 µM
- IC50 [18]: 400 µM
- IC50 (human neuroma cells D54): 300 µM
- IC50 [19]: 400 µM
